According to patent publication US6803233B2, “Model for Alzheimer's disease and other neurodegenerative diseases” (priority 2000, dated 2004):
Where “and” joins values, the source holds several entries; their conditions need not be identical. Equal values may be shown once. Entries after “also recorded” stand apart in the source; their conditions may differ.

Experiments:
p35 = experiment: Immunoblot of p35/p25 in cultured rat hippocampal slices; assay type: cell-based; conditions: hippocampal slices
Experimental: Hippocampal slices were collected, homogenized, and subjected to SDS-PAGE electrophoresis. Immunoblots were then probed with anti-p35 sera that were raised against the C-terminal domain of p35.
(§1) Cultures of hippocampal slices were prepared from 10-12 days old rats.

tau = experiment: Immunoblot of tau (tau-1, AT8) in cultured rat hippocampal slices; assay type: cell-based; conditions: rat hippocampal slices; 6 days
Experimental: Immunoblotting was carried out by using anti-non phosphorylated tau antibody, tau-1 or anti-phosphorylated tau antibody, AT8.
as §1

IL-10 = experiment: RT-PCR/northern blot of cytokine mRNA in cultured hippocampal slices; assay type: cell-based; conditions: ZPAD 20 μM, mevastatin 20 μM
tau protein = conditions: literature report; cited from earlier work
cathepsin D = experiment: Immunoblot of cathepsin D isoforms in cultured mouse hippocampal slices; assay type: cell-based; conditions: 20 μM ZPAD, 6 days
reactive microglia = experiment: ED-1 immunocytochemistry of cultured brain explants; assay type: cell-based, rat; conditions: ZPAD 20 μM, mevastatin 20 μM or PD98059 50 μM alone, 6 days
Experimental: Immunocytochemical studies using the monoclonal antibody ED-1 that recognizes reactive microglia were used at 1:1000 dilution following standard immunohistochemical procedures. Microglial activation was determined by measuring cell numbers, optical density, and size of cell bodies using the program NIH Image. Brain tissue was cultured for 12 days and treated with ZPAD (20 μM) in the presence or absence of PD98059 (50 μM) for 6 days (FIG. 18). Cultured explants were then sliced and stained by using monoclonal antibody ED-1 which recognizes reactive microglia, a classical marker of inflammation. […] Cultured brain explants were then sliced and stained by using monoclonal antibody ED-1, a classical marker for reactive microglia and macrophages.

tangle-like formations = experiment: Electron microscopic immunogold analysis of cultured slices; assay type: cell-based, mouse; conditions: ZPAD 6 days
Experimental: Lowicryl resin-embedded ultrathin sections (of 70-80 nm thickness) were picked up on either pioloform-coated nickel slot grids or pioloform-coated 400 mesh nickel grids. The grids were incubated on drops of blocking solution, followed by incubation on drops of primary antibodies (AT8 or PHF-1). After the incubation with primary antibodies, the sections were washed in TBS (three times for 10 min each) and in 50 mM Tris-HCl, pH 7.4, containing 0.9% NaCl (“TBS*”; once for 10 min; TBS* has 50 mM Tris-HCl and 0.9% NaCl without KCl, while TBS has 25 mM Tris-HCl and KCl) ) and incubated on drops of goat anti-mouse IgG coupled to 10 nm gold particles (British BioCell Int.). The secondary antibodies were diluted 1:100 in TBS* containing 0.05% polyethylene glycol 20000 (BDH; Merck) and 1% gelatin for 2 hr at 28° C. After additional washing in TBS* (three times for 10 min each) and PBS (once for 10 min), the sections were post-fixed in 2% glutaraldehyde in PBS for 2 min at room temperature and then washed in bidistilled water (three times for 10 min each). Finally, the sections were contrasted with saturated aqueous uranyl acetate followed by staining with lead citrate. […]

MAPK (ERK1/2) = experiment: Immunoblot with anti-active MAPK in cultured hippocampal slices; assay type: cell-based; conditions: hippocampal slices; 6 days
TGF-beta = experiment: RT-PCR/northern blot of cytokine mRNA in cultured hippocampal slices; assay type: cell-based; conditions: ZPAD 20 μM, mevastatin 20 μM
basophilic granules = experiment: Semithin section histology (toluidine blue) of cultured mouse hippocampal slices; assay type: cell-based; conditions: 20 μM ZPAD, six days; wild-type and apoE-deficient slices
Experimental: To prepare semithin sections, control and treated slices from both wild-type and apoE-deficient mice were fixed in a solution of 0.1M phosphate buffer (“PB”; pH 7.2), containing 1.5% paraformaldehyde and 1.5% glutaraldehyde. After a period of two to three hours, the solution was removed and the slices were rinsed three times in phosphate buffered saline (“PBS”; 50 mM phosphate buffer, 0.9% NaCl, pH 7.3). At this time, slices were postfixed in 2% osmium tetroxide in PB for one hour, dehydrated in a series of alcohols and embedded in Polybed-812. Semithin (1 μm thick) sections were cut on a Sorvall Porter-Blum ultramicrotome and stained with a solution of 0.1% toluidine blue. Digitized images were imported using a Sony DKC-5000 camera attached to a Zeiss microscope and processed using Adobe Photoshop™.

tangle-like structures = experiment: AT8 immunostaining of cultured rat hippocampal slices; assay type: cell-based; conditions: rat hippocampal slices; agent applied for 6 days
Experimental: Cultured slices were stained with anti-phosphorylated tau antibody AT8.
as §1
Cultured rat hippocampal slices of 12 days in vitro were treated with 20 μM pravastatin for 6 days and processed from immunohistological studies with the monoclonal antibody AT8. The subiculum, CA1 field, and CA3 field of the hippocampus were examined by photomicroscopy.

[1] = apoE-knockout mouse slices, relative to yoked knockout controls
[2] = wild-type mouse slices, relative to controls, mean±s.e.m.

N-CBZ-L-phenylalanyl-L-alanine-diazomethyl-ketone [ZPAD]
levels of p35 (p35; 6 days): significant decrease | truncated form p25 (p35; six day treatment): paralleled increase | native tau proteins (tau-1 blot) (tau): decreases in the native tau proteins; also recorded: induced a truncation of native tau proteins | tau fragments (tau-1 blot) (tau): increases in fragments at apparent molecular weights of 40, 33, and 29 kDa; also recorded: generation of tau fragments | mRNA levels of IL-10 (IL-10): increases | 29 kDa tau fragment (tau 29) (tau protein): production of a 29-kDa tau fragment; also recorded: delayed appearance of a 29 kDa fragment | high molecular weight isoforms of tau protein (tau protein): degradation of high molecular weight isoforms of tau protein | increase in cathepsin D heavy chain (~38 kDa) (cathepsin D; apoE-knockout mouse slices, relative to control values): 84±26% and 84+26% | increase in cathepsin D proenzyme (~55 kDa) (cathepsin D; [1]): 145±43% and 145+43% | increase in cathepsin D single chain (~50 kDa) (cathepsin D; [1]): 150±29% and 150+29% | increase in cathepsin D heavy chain (~38 kDa) (cathepsin D; [2]): 3.0±5.7% and 3.0+5.7% | increase in cathepsin D single chain form (~50 kDa) (cathepsin D; [2]): 42±22% and 42+22% | increase in cathepsin D proenzyme (~55 kDa) (cathepsin D; wild-type mouse slices, relative to yoked controls, mean±s.e.m., n=9): 65±29% and 65+29% | reaction of microglia (ED-1 staining) (reactive microglia): triggered significant reaction of microglia | ultrastructure: intracellular inclusions (tangle-like formations): Numerous intracellular inclusions | activated MAPK (ERK1/2) (MAPK (ERK1/2)): activated; also recorded: activation | mRNA levels of TGF-beta (TGF-beta): increases | number of basophilic granules (lysosomes) (basophilic granules): increase in the number of basophilic granules | induction of AT8-immunoreactive tangle-like structures (tangle-like structures): only a small number; also recorded: moderately increased; also recorded: induced numerous tangles
